Key:
[1] = molecular target: T1, recombinant HIV-1 capsid protein (CA) (Human immunodeficiency virus type 1 group M subtype B, UniProt P12493); assay: Turbidity based HIV-1 capsid assembly assay; assay type: biochemical; conditions: initial assembly rate by turbidity; twofold dilutions over a 128 fold range; 30 μM CA, 2.25 M NaCl
T1 construct: recombinant HIV-1 capsid protein (CA); made in house
Procedure: The kinetics can be followed by monitoring the increase of turbidity using a spectrophotometer. The IC50 of the chemical compound tested is determined by titration. As the C-domain inhibits capsid assembly by forming CA-C-domain heterodimers, the effect of added C-terminal domain on the rate of assembly was evaluated by plotting the rate of assembly versus C-terminal domain concentration.
Soluble HIV-1 capsid protein can be triggered to assemble into tubes similar in diameter and morphology to intact cores by dilution into high iconic strength buffer. The kinetics of assembly can be followed by monitoring the increase in turbidity using a spectrophotometer (Lanham et al., J. Virol., 76:6900, 2002). This assembly assay was adapted to a 96-well, microplate format to allow for medium-throughput screening of compounds by measuring turbidity in a Nepeloskan Ascent plate reader (Thermo Electron Corp., UK). A DIVERSet™ library of 10,000 low molecular weight, “drug-like” compounds was purchased from ChemBridge Corp. (San Diego, Calif.). This library was selected for its potential bioavailability and application based on a pharmacophore diversity analysis. The average molecular weight of the compounds is 347 g/mol, the range being 200-596 g/mol. The compounds came plated in 96-well plates and solubilized in DMSO at 5 mgs/mL.
Turbidity based assay. A 1.5 μL aliquot of compound was diluted 90-fold into 50 mM Na2HPO4, […] buffer, pH 8 in an optically clear 96-well plate. The plate containing compounds and salt was read to check for compound solubility and to serve as a background reading for the assay. To initiate the assembly reaction, 15 μL of […] stock (in 50 mM Na2HPO4 pH 8) of recombinant HIV-1 capsid protein (CA), purified as described (Lanman et al., J. Virol., 76:6900, 2002), was added to each well of the 96-well plate using a multi-channel pipettor. […] Furthermore, the halftime of the assembly reaction is ˜5 minutes so reading the plate in thirds prevented loss of initial rate data. Therefore, CA was added to the first 4 lanes, the reactions followed for ten minutes, reading was paused, CA was then added to the next four lanes and the process repeated. Instrument settings are as follows: PMT gain of 500 V, lamp at 10V, and integration time of 60 ms. The data were exported to a custom designed Excel spreadsheet that allowed simultaneous plotting of kinetic curves.
Recombinant CA protein was purified as previously described and stored at 300 μM at −80° C. A turbidity based assembly assay, described above, was adapted to a 96-well, microplate format to allow for medium-throughput screening of compounds in a Nepheloskan Ascent plate reader (Thermo Electron Corp., UK). A 1.5 μL aliquot of compound or DMSO was diluted 90-fold into 50 mM Na2HPO4, 2.25 M NaCl buffer, pH 8 in an optically clear 96-well plate. To initiate the assembly reaction, 15 μL of the 300 μM stock (in 50 mM Na2HPO4 pH 8) of recombinant HIV-1 capsid protein (CA), was added to each well of the 96-well plate using a multi-channel pipettor.

HIV-1NL43 = assay: Anti-HIV assay (single round), infectivity of virus produced, titered on TZM-b1 cells; assay type: cell-based; conditions: virus from NL43-transfected 293T cells, 72 hours; luciferase after two days; read-out: Infectivity 50%
Procedure: Anti-HIV Assays (Single Round). The inhibitory effect of the compounds on virus production and infectivity were determined by measuring the level of p24 produced in the presence of various concentrations of compounds from HEK-293 cells transiently transfected with pNL43 and by titering the virus on TZM-b1 cells. Briefly, 2.5×10^5 HEK-293 cells/ml were transfected with pNL43 using FuGene 6. Four hours post transfection the cells were plated in 96-well plates containing 100 μl of various concentrations of compounds (0-75 μM or 0-300 μM for mock transfected cells) in triplicate. At 72-hours post transfection virus supernatant was collected and stored at −80° C. until analysis. The level of p24 produced at each compound concentration was determined relative to the level produced in the presence of the DMSO only controls using HIV-1 p24 enzyme-linked immunosorbent assay (ELISA) (Beckman-Coulter). To determine the infectivity of the virus produced TZM-b1 cells were plated at 1×10^5 cells/ml in 100 μL in 96-well plates overnight. The next day, the media was replaced with 75 μL DMEM supplemented with 1% FBS, 1× PSG and 40 μg/ml DEAE Dextran and 25 μL of viral supernatant from the HEK-293 cells was added to each well. Three hours later 100 μL of DMEM with 7% FBS was added to each well. Two days after infection the cells were lysed and the level of luciferase expression was determined using the Bright-Glo assay.
FIGS. 12-18 show the anti-HIV assays for the examples of chemical compounds used according to the invention. After in-vitro assay, the chemical compounds in FIGS. 12-18 were selected for screening for cell viability and toxicity. Jurkat cells assay was used as screening assay. In Jurkat cells assay, JLTRG-R5 cells were used as Indicator cells and MOLT4 cells as Producer cells of NL43 and BAL virus. 96 chemical compounds were plated at seven different concentration from 75 μM to 0 μM at three-fold serial dilutions in 384 well plate. After five days, GFP expression was read. Cell viability was monitored with Alamar Blue assay. Luc M7 assay was designed to measure inhibitory activity of the chemical compounds to viral replication. After infection of cells with YU2 virus, plate cells in 96-well plate in the presence of six concentration of compounds in DMSO. At day 6, the number of cells in wells were read with Cell Titer Glo kit or by counting the number of cells infected with Bright Glo kit. 293T cells assay was designed to determine the toxicity. 293T cells were transfected with NL43. After four hours, transfected cells were plated in 96-well plate in DMSO and 2 μM Indinavir. 72 hours later, viral supernatant was collected and plated on JC53BL. Luciferase expression was measure after two days and p24 analysis was conducted with 1:1000 and 1:2000 dilutions.

Cc1ncc(C[n+]2csc(CCOC(=O)C3C4CC5CC(C4)CC3C5)c2C)c(N)n1.Cl.[Cl-] (centres unmarked) [Compound 26]
IC50 [1]: 28 µM | IC50 (HIV-1NL43): 17.6 µM
